Assay results: ChEMBL document CHEMBL2331210, “New 2-benzylsulfanyl-nicotinic acid based 1,3,4-oxadiazoles: their synthesis and biological evaluation” (2013)
Values after ≈ are worked out from the molar mass of the structure shown.

Experiments:
Staphylococcus aureus = test: Antimicrobial activity against Staphylococcus aureus MTCC 96 assessed as growth inhibition measured after overnight incubation by broth dilution method; type: functional
K562 = test: Antitumor activity against human K562 cells assessed as cell growth at 0.1 uM; type: functional; settings: read-out: Activity
LOX IMVI = test: Antitumor activity against human LOXIMVI cells assessed as cell growth at 0.1 uM; type: functional; settings: read-out: Activity
Malme-3M = test: Antitumor activity against human MALME-3M cells assessed as cell growth at 0.1 uM; type: functional; settings: read-out: Activity
UO-31 = test: Antitumor activity against human UO31 cells assessed as cell growth at 0.1 uM; type: functional; settings: read-out: Activity
HT-29 = test: Antitumor activity against human HT-29 cells assessed as cell growth at 0.1 uM; type: functional; settings: read-out: Activity
MDA-MB-468 = test: Antitumor activity against human MDA-MB-468 cells assessed as cell growth at 0.1 uM; type: functional; settings: read-out: Activity
Aspergillus niger = test: Antimicrobial activity against Aspergillus niger MTCC 282 assessed as growth inhibition measured after overnight incubation by broth dilution method; type: functional
Candida albicans = test: Antimicrobial activity against Candida albicans MTCC 227 assessed as growth inhibition measured after overnight incubation by broth dilution method; type: functional
SK-OV-3 = test: Antitumor activity against human SKOV3 cells assessed as cell growth at 0.1 uM; type: functional; settings: read-out: Activity
RPMI-8226 = test: Antitumor activity against human RPMI8226 cells assessed as cell growth at 0.1 uM; type: functional; settings: read-out: Activity
MOLT-4 = test: Antitumor activity against human MOLT4 cells assessed as cell growth at 0.1 uM; type: functional; settings: read-out: Activity
HCT-15 = test: Antitumor activity against human HCT15 cells assessed as cell growth at 0.1 uM; type: functional; settings: read-out: Activity
SK-MEL-28 = test: Antitumor activity against human SK-MEL-28 cells assessed as cell growth at 0.1 uM; type: functional; settings: read-out: Activity
BT-549 = test: Antitumor activity against human BT549 cells assessed as cell growth at 0.1 uM; type: functional; settings: read-out: Activity
Pseudomonas aeruginosa = test: Antimicrobial activity against Pseudomonas aeruginosa MTCC 2488 assessed as growth inhibition measured after overnight incubation by broth dilution method; type: functional
M14 = test: Antitumor activity against human M14 cells assessed as cell growth at 0.1 uM; type: functional; settings: read-out: Activity
TK-10 = test: Antitumor activity against human TK10 cells assessed as cell growth at 0.1 uM; type: functional; settings: read-out: Activity
NCI/ADR-RES = test: Antitumor activity against human NCI/ADR-RES cells assessed as cell growth at 0.1 uM; type: functional; settings: read-out: Activity
SNB-75 = test: Antitumor activity against human SNB75 cells assessed as cell growth at 0.1 uM; type: functional; settings: read-out: Activity
SR = test: Antitumor activity against human SR cells assessed as cell growth at 0.1 uM; type: functional; settings: read-out: Activity
SN12C = test: Antitumor activity against human SN12C cells assessed as cell growth at 0.1 uM; type: functional; settings: read-out: Activity
T47D = test: Antitumor activity against human T47D cells assessed as cell growth at 0.1 uM; type: functional; settings: read-out: Activity
KM12 = test: Antitumor activity against human KM12 cells assessed as cell growth at 0.1 uM; type: functional; settings: read-out: Activity
OVCAR-5 = test: Antitumor activity against human OVCAR5 cells assessed as cell growth at 0.1 uM; type: functional; settings: read-out: Activity
SW-620 = test: Antitumor activity against human SW620 cells assessed as cell growth at 0.1 uM; type: functional; settings: read-out: Activity
Streptococcus pyogenes = test: Antimicrobial activity against Streptococcus pyogenes MTCC 442 assessed as growth inhibition measured after overnight incubation by broth dilution method; type: functional
UACC-257 = test: Antitumor activity against human UACC257 cells assessed as cell growth at 0.1 uM; type: functional; settings: read-out: Activity
PC-3 = test: Antitumor activity against human PC3 cells assessed as cell growth at 0.1 uM; type: functional; settings: read-out: Activity
NCI-H522 = test: Antitumor activity against human NCI-H522 cells assessed as cell growth at 0.1 uM; type: functional; settings: read-out: Activity
SK-MEL-5 = test: Antitumor activity against human SK-MEL-5 cells assessed as cell growth at 0.1 uM; type: functional; settings: read-out: Activity
[1] = system: Mycobacterium tuberculosis; test: Antitubercular activity against Mycobacterium tuberculosis H37Rv assessed as growth inhibition after 12 to 28 days by L.J. agar MIC method; type: functional
[2] = Antitumor activity against human EKVX cells assessed as cell growth at 0.1 uM; type: functional; settings: read-out: Activity
CAKI-1 = test: Antitumor activity against human CAKI-1 cells assessed as cell growth at 0.1 uM; type: functional; settings: read-out: Activity
SNB-19 = test: Antitumor activity against human SNB19 cells assessed as cell growth at 0.1 uM; type: functional; settings: read-out: Activity
U-251 = test: Antitumor activity against human U251 cells assessed as cell growth at 0.1 uM; type: functional; settings: read-out: Activity
OVCAR-8 = test: Antitumor activity against human OVCAR8 cells assessed as cell growth at 0.1 uM; type: functional; settings: read-out: Activity
A498 = test: Antitumor activity against human A498 cells assessed as cell growth at 0.1 uM; type: functional; settings: read-out: Activity
HCT-116 = test: Antitumor activity against human HCT116 cells assessed as cell growth at 0.1 uM; type: functional; settings: read-out: Activity
UACC-62 = test: Antitumor activity against human UACC62 cells assessed as cell growth at 0.1 uM; type: functional; settings: read-out: Activity
MCF7 = test: Antitumor activity against human MCF7 cells assessed as cell growth at 0.1 uM; type: functional; settings: read-out: Activity
SF-268 = test: Antitumor activity against human SF268 cells assessed as cell growth at 0.1 uM; type: functional; settings: read-out: Activity
IGROV-1 = test: Antitumor activity against human IGROV1 cells assessed as cell growth at 0.1 uM; type: functional; settings: read-out: Activity
NCI-H226 = test: Antitumor activity against human NCI-H226 cells assessed as cell growth at 0.1 uM; type: functional; settings: read-out: Activity
MDA-MB-231 = test: Antitumor activity against human MDA-MB-231/ATCC cells assessed as cell growth at 0.1 uM; type: functional; settings: read-out: Activity
OVCAR-4 = test: Antitumor activity against human OVCAR4 cells assessed as cell growth at 0.1 uM; type: functional; settings: read-out: Activity
SF-295 = test: Antitumor activity against human SF295 cells assessed as cell growth at 0.1 uM; type: functional; settings: read-out: Activity
OVCAR-3 = test: Antitumor activity against human OVCAR3 cells assessed as cell growth at 0.1 uM; type: functional; settings: read-out: Activity
SK-MEL-2 = test: cells; settings: Homo sapiens, SK-MEL-2, read-out: Activity
Description: Antitumor activity against human SK-MEL-2 cells assessed as cell growth at 0.1 uM

HOP-62 = test: Antitumor activity against human HOP62 cells assessed as cell growth at 0.1 uM; type: functional; settings: read-out: Activity
DU-145 = test: Antitumor activity against human DU145 cells assessed as cell growth at 0.1 uM; type: functional; settings: read-out: Activity
ACHN = test: Antitumor activity against human ACHN cells assessed as cell growth at 0.1 uM; type: functional; settings: read-out: Activity
SF-539 = test: Antitumor activity against human SF539 cells assessed as cell growth at 0.1 uM; type: functional; settings: read-out: Activity
MDA-MB-435 = test: Antitumor activity against human MDA-MB-435 cells assessed as cell growth at 0.1 uM; type: functional; settings: read-out: Activity
Aspergillus clavatus = test: Antimicrobial activity against Aspergillus clavatus MTCC 1323 assessed as growth inhibition measured after overnight incubation by broth dilution method; type: functional
A549 = test: Antitumor activity against human A549/ATCC cells assessed as cell growth at 0.1 uM; type: functional; settings: read-out: Activity
RXF 393 = test: Antitumor activity against human RXF393 cells assessed as cell growth at 0.1 uM; type: functional; settings: read-out: Activity
[3] = Antitumor activity against human HCC2998 cells assessed as cell growth at 0.1 uM; type: functional; settings: HCC 2998, read-out: Activity
NCI-H23 = test: Antitumor activity against human NCI-H23 cells assessed as cell growth at 0.1 uM; type: functional; settings: read-out: Activity
[4] = Antitumor activity against human Hs 578T cells assessed as cell growth at 0.1 uM; type: functional; settings: read-out: Activity
HL-60 = test: Antitumor activity against human HL60(TB) cells assessed as cell growth at 0.1 uM; type: functional; settings: read-out: Activity
NCI-H460 = test: Antitumor activity against human NCI-H460 cells assessed as cell growth at 0.1 uM; type: functional; settings: read-out: Activity
Escherichia coli = test: Antimicrobial activity against Escherichia coli MTCC 443 assessed as growth inhibition measured after overnight incubation by broth dilution method; type: functional
CCRF-CEM = test: Antitumor activity against human CCRF-CEM cells assessed as cell growth at 0.1 uM; type: functional; settings: read-out: Activity

With Cc1cnc(NC(=O)CSc2nnc(-c3cccnc3SCc3ccccc3)o2)s1 the MIC (Staphylococcus aureus) was 125 µg/mL (≈ 274 µM), the growth at 0.1 µM (K562) was 77.2% and the growth at 0.1 µM (LOX IMVI) was 73.1%. The growth at 0.1 µM (Malme-3M) was 100%, the growth at 0.1 µM (UO-31) was 22.2% and the growth at 0.1 µM (HT-29) was 81.6%. For the same molecule, the growth at 0.1 µM (MDA-MB-468) was 57.5%, the MIC (Aspergillus niger) was 1000 µg/mL (≈ 2190 µM) and the MIC (Candida albicans) was 250 µg/mL (≈ 549 µM). The growth at 0.1 µM (SK-OV-3) was 96.2%, the growth at 0.1 µM (RPMI-8226) was 63.9% and the growth at 0.1 µM (MOLT-4) was 41.8%. The growth at 0.1 µM (HCT-15) was 77.3%, the growth at 0.1 µM (SK-MEL-28) was 106% and the growth at 0.1 µM (BT-549) was 75.7%. It also gave an MIC (Pseudomonas aeruginosa) of 62.5 µg/mL (≈ 137 µM), a growth at 0.1 µM (M14) of 84.1% and a growth at 0.1 µM (TK-10) of 82.3%. It also gave a growth at 0.1 µM (NCI/ADR-RES) of 74%, a growth at 0.1 µM (SNB-75) of 70.6% and a growth at 0.1 µM (SR) of 67.9%. It also gave a growth at 0.1 µM (SN12C) of 46.3%, a growth at 0.1 µM (T47D) of 37.5% and a growth at 0.1 µM (KM12) of 44.9%. For the same molecule, the growth at 0.1 µM (OVCAR-5) was 87.5%, the growth at 0.1 µM (SW-620) was 90% and the MIC (Streptococcus pyogenes) was 62.5 µg/mL (≈ 137 µM). It also gave a growth at 0.1 µM (UACC-257) of 94.9%, a growth at 0.1 µM (PC-3) of 46.4% and a growth at 0.1 µM (NCI-H522) of 18.5%. The growth at 0.1 µM (SK-MEL-5) was 78%, the “growth inhibition (GI)” value [1] was 99% and the MIC ([1]; Mycobacterium tuberculosis, H37Rv) was 50 µg/mL (≈ 110 µM). The growth at 0.1 µM [2] was 72.1%, the growth at 0.1 µM (CAKI-1) was 75.3% and the growth at 0.1 µM (SNB-19) was 65.3%. For the same molecule, the growth at 0.1 µM (U-251) was 72.8%, the growth at 0.1 µM (OVCAR-8) was 70.3% and the growth at 0.1 µM (A498) was 73.7%. The growth at 0.1 µM (HCT-116) was 82.4%, the growth at 0.1 µM (UACC-62) was 71.7% and the growth at 0.1 µM (MCF7) was 62.8%. For the same molecule, the growth at 0.1 µM (SF-268) was 59.1%, the growth at 0.1 µM (IGROV-1) was 58.5% and the growth at 0.1 µM (NCI-H226) was 70.2%. The growth at 0.1 µM (MDA-MB-231) was 11%, the growth at 0.1 µM (OVCAR-4) was 67% and the growth at 0.1 µM (SF-295) was 90.1%. The growth at 0.1 µM (OVCAR-3) was 82.2%, the growth at 0.1 µM (SK-MEL-2) was 94% and the growth at 0.1 µM (HOP-62) was 81.1%. For the same molecule, the growth at 0.1 µM (DU-145) was 58%, the growth at 0.1 µM (ACHN) was 66.5% and the growth at 0.1 µM (SF-539) was 85.5%. It also gave a growth at 0.1 µM (MDA-MB-435) of 96.5%, an MIC (Aspergillus clavatus) of 1000 µg/mL (≈ 2190 µM) and a growth at 0.1 µM (A549) of 51%. It also gave a growth at 0.1 µM (RXF 393) of 73%, a growth at 0.1 µM [3] of 89.5% and a growth at 0.1 µM (NCI-H23) of 80.6%. For the same molecule, the growth at 0.1 µM [4] was 86.2%, the growth at 0.1 µM (HL-60) was 49.8% and the growth at 0.1 µM (NCI-H460) was 81.1%. For the same molecule, the MIC (Escherichia coli) was 200 µg/mL (≈ 439 µM) and the growth at 0.1 µM (CCRF-CEM) was 37.8%.
